From the supplement of paper PMC10307832

Assays:
Assay in all cases: relative viability (nuclei count vs DMSO), 5 days (fraction); higher = more cells survive
A549 = test system: A549
In short: (§1)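 For relative viability, nuclei counts in treated wells were divided by those in vehicle wells. Lung cancer cell lines had been pin-tool dosed in 1536-well plates the day after seeding and cultured for 5 days, then fixed and stained in one step (final 0.05% Triton X-100, 1% formaldehyde, 1 ug/ml Hoechst) and imaged at 4×. Doses were one drug alone or a fixed anchor-drug dose plus five library-drug doses (not always all listed) in √10 steps, and values are duplicate-plate medians.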

SK-MES-1 = test system: SK-MES-1
In short: as §1

IA-LM = test system: IA-LM
In short: as §1

EBC-1 = test system: EBC-1
In short: as §1

NCI-H1703 = test system: NCI-H1703
In short: as §1

NCI-H1299 = test system: NCI-H1299
In short: as §1

NCI-H1651 = test system: NCI-H1651
In short: as §1

Calu-6 = test system: Calu-6
In short: as §1

ChaGo-K-1 = test system: ChaGo-K-1
In short: as §1

SMILES: Oc1nc(-c2ccc(C(F)(F)F)cc2)nc2c1CSCC2 [XAV939] + C[C@]1(O)C[C@@H](c2nc(-c3ccc4ccc(-c5ccccc5)nc4c3)c3c(N)nccn32)C1 [Linsitinib] (partner 1 µM)
- relative viability (A549; first compound 0.08 µM): 0.696
- relative viability (A549; first compound 0.253 µM): 0.526
- relative viability (A549; first compound 0.8 µM): 0.486
- relative viability (A549; first compound 2.53 µM): 0.51
- relative viability (SK-MES-1; first compound 0.08 µM): 1.1
- relative viability (SK-MES-1; first compound 0.253 µM): 0.896
- relative viability (SK-MES-1; first compound 0.8 µM): 1.03
- relative viability (SK-MES-1; first compound 2.53 µM): 0.965
- relative viability (IA-LM; first compound 0.08 µM): 0.565
- relative viability (IA-LM; first compound 0.253 µM): 0.512
- relative viability (IA-LM; first compound 0.8 µM): 0.505
- relative viability (IA-LM; first compound 2.53 µM): 0.458
- relative viability (EBC-1; first compound 0.08 µM): 1.02
- relative viability (EBC-1; first compound 0.253 µM): 0.832
- relative viability (EBC-1; first compound 0.8 µM): 0.809
- relative viability (EBC-1; first compound 2.53 µM): 0.754
- relative viability (NCI-H1703; first compound 0.08 µM): 1.31
- relative viability (NCI-H1703; first compound 0.253 µM): 1.02
- relative viability (NCI-H1703; first compound 0.8 µM): 0.969
- relative viability (NCI-H1703; first compound 2.53 µM): 0.584
- relative viability (NCI-H1299; first compound 0.08 µM): 1.03
- relative viability (NCI-H1299; first compound 0.253 µM): 0.878
- relative viability (NCI-H1299; first compound 0.8 µM): 0.948
- relative viability (NCI-H1299; first compound 2.53 µM): 0.948
- relative viability (NCI-H1651; first compound 0.08 µM): 1.01
- relative viability (NCI-H1651; first compound 0.253 µM): 0.799
- relative viability (NCI-H1651; first compound 0.8 µM): 0.915
- relative viability (NCI-H1651; first compound 2.53 µM): 0.875
- relative viability (Calu-6; first compound 0.08 µM): 0.981
- relative viability (Calu-6; first compound 0.253 µM): 1.04
- relative viability (Calu-6; first compound 0.8 µM): 0.953
- relative viability (Calu-6; first compound 2.53 µM): 0.856

SMILES: C=C1C(=O)O[C@@H](CCCCCCCC)[C@@H]1C(=O)O [C-75] + C[C@]1(O)C[C@@H](c2nc(-c3ccc4ccc(-c5ccccc5)nc4c3)c3c(N)nccn32)C1 [Linsitinib] (partner 1 µM)
- relative viability (A549; first compound 0.08 µM): 0.526
- relative viability (A549; first compound 0.253 µM): 0.753
- relative viability (A549; first compound 0.8 µM): 0.549
- relative viability (A549; first compound 2.53 µM): 0.37
- relative viability (A549; first compound 8 µM): 0.628
- relative viability (SK-MES-1; first compound 0.08 µM): 1.1
- relative viability (SK-MES-1; first compound 0.253 µM): 0.935
- relative viability (SK-MES-1; first compound 0.8 µM): 1.02
- relative viability (SK-MES-1; first compound 8 µM): 1.05
- relative viability (IA-LM; first compound 0.08 µM): 0.682
- relative viability (IA-LM; first compound 0.253 µM): 0.644
- relative viability (IA-LM; first compound 0.8 µM): 0.53
- relative viability (IA-LM; first compound 2.53 µM): 0.556
- relative viability (IA-LM; first compound 8 µM): 0.53
- relative viability (EBC-1; first compound 0.08 µM): 0.878
- relative viability (EBC-1; first compound 0.253 µM): 1.05
- relative viability (EBC-1; first compound 0.8 µM): 0.82
- relative viability (EBC-1; first compound 2.53 µM): 0.821
- relative viability (EBC-1; first compound 8 µM): 0.734
- relative viability (NCI-H1703; first compound 0.08 µM): 0.752
- relative viability (NCI-H1703; first compound 0.253 µM): 0.591
- relative viability (NCI-H1703; first compound 0.8 µM): 0.672
- relative viability (NCI-H1703; first compound 2.53 µM): 0.457
- relative viability (NCI-H1703; first compound 8 µM): 0.632
- relative viability (NCI-H1299; first compound 0.08 µM): 1.01
- relative viability (NCI-H1299; first compound 0.253 µM): 0.908
- relative viability (NCI-H1299; first compound 0.8 µM): 1.05
- relative viability (NCI-H1299; first compound 2.53 µM): 0.814
- relative viability (NCI-H1299; first compound 8 µM): 1.06
- relative viability (NCI-H1651; first compound 0.08 µM): 1.06
- relative viability (NCI-H1651; first compound 0.253 µM): 1.07
- relative viability (NCI-H1651; first compound 0.8 µM): 1.08
- relative viability (NCI-H1651; first compound 2.53 µM): 0.975
- relative viability (NCI-H1651; first compound 8 µM): 0.964
- relative viability (Calu-6; first compound 0.08 µM): 0.902
- relative viability (Calu-6; first compound 0.253 µM): 0.941
- relative viability (Calu-6; first compound 0.8 µM): 0.905
- relative viability (Calu-6; first compound 2.53 µM): 0.916
- relative viability (Calu-6; first compound 8 µM): 0.724

SMILES: Oc1nc(-c2ccc(C(F)(F)F)cc2)nc2c1CSCC2 [XAV939] + CC(C)C[C@H](NC(=O)[C@H](Cc1ccccc1)NC(=O)c1cnccn1)B(O)O [Bortezomib] (partner 0.002 µM)
- relative viability (IA-LM; first compound 0.08 µM): 0.736
- relative viability (IA-LM; first compound 0.253 µM): 0.617
- relative viability (IA-LM; first compound 0.8 µM): 0.607
- relative viability (IA-LM; first compound 2.53 µM): 0.487
- relative viability (EBC-1; first compound 0.08 µM): 0.589
- relative viability (EBC-1; first compound 0.253 µM): 0.478
- relative viability (EBC-1; first compound 0.8 µM): 0.584
- relative viability (EBC-1; first compound 2.53 µM): 0.476
- relative viability (NCI-H1703; first compound 0.08 µM): 0.451
- relative viability (NCI-H1703; first compound 0.253 µM): 0.417
- relative viability (NCI-H1703; first compound 0.8 µM): 0.293
- relative viability (NCI-H1703; first compound 2.53 µM): 0.285
- relative viability (ChaGo-K-1; first compound 0.08 µM): 0.967
- relative viability (ChaGo-K-1; first compound 0.253 µM): 0.848
- relative viability (ChaGo-K-1; first compound 0.8 µM): 0.981
- relative viability (ChaGo-K-1; first compound 2.53 µM): 0.941
- relative viability (NCI-H1299; first compound 0.08 µM): 1.06
- relative viability (NCI-H1299; first compound 0.253 µM): 0.996
- relative viability (NCI-H1299; first compound 0.8 µM): 1.07
- relative viability (NCI-H1299; first compound 2.53 µM): 1.05
- relative viability (NCI-H1651; first compound 0.08 µM): 0.906
- relative viability (NCI-H1651; first compound 0.253 µM): 0.905
- relative viability (NCI-H1651; first compound 0.8 µM): 0.942
- relative viability (NCI-H1651; first compound 2.53 µM): 0.925
- relative viability (Calu-6; first compound 0.08 µM): 0.936
- relative viability (Calu-6; first compound 0.253 µM): 0.978
- relative viability (Calu-6; first compound 0.8 µM): 1.05
- relative viability (Calu-6; first compound 2.53 µM): 0.978

SMILES: CC1(C)CCC(c2ccc(Cl)cc2)=C(CN2CCN(c3ccc(C(=O)NS(=O)(=O)c4ccc(N[C@H](CCN5CCOCC5)CSc5ccccc5)c(S(=O)(=O)C(F)(F)F)c4)cc3)CC2)C1 [Navitoclax] + CC(C)C[C@H](NC(=O)[C@H](Cc1ccccc1)NC(=O)c1cnccn1)B(O)O [Bortezomib] (partner 0.002 µM)
- relative viability (IA-LM; first compound 0.005 µM): 0.926
- relative viability (IA-LM; first compound 0.01581 µM): 0.818
- relative viability (IA-LM; first compound 0.05 µM): 0.824
- relative viability (IA-LM; first compound 0.1581 µM): 0.896
- relative viability (IA-LM; first compound 0.5 µM): 0.747
- relative viability (EBC-1; first compound 0.005 µM): 0.614
- relative viability (EBC-1; first compound 0.01581 µM): 0.649
- relative viability (EBC-1; first compound 0.05 µM): 0.575
- relative viability (EBC-1; first compound 0.1581 µM): 0.616
- relative viability (EBC-1; first compound 0.5 µM): 0.383
- relative viability (NCI-H1703; first compound 0.005 µM): 0.214
- relative viability (NCI-H1703; first compound 0.01581 µM): 0.275
- relative viability (NCI-H1703; first compound 0.05 µM): 0.313
- relative viability (NCI-H1703; first compound 0.1581 µM): 0.65
- relative viability (NCI-H1703; first compound 0.5 µM): 0.224
- relative viability (ChaGo-K-1; first compound 0.005 µM): 0.907
- relative viability (ChaGo-K-1; first compound 0.01581 µM): 1.01
- relative viability (ChaGo-K-1; first compound 0.05 µM): 0.91
- relative viability (ChaGo-K-1; first compound 0.1581 µM): 0.959
- relative viability (ChaGo-K-1; first compound 0.5 µM): 1.04
- relative viability (NCI-H1299; first compound 0.005 µM): 1.04
- relative viability (NCI-H1299; first compound 0.01581 µM): 1.12
- relative viability (NCI-H1299; first compound 0.05 µM): 1.01
- relative viability (NCI-H1299; first compound 0.1581 µM): 1.05
- relative viability (NCI-H1299; first compound 0.5 µM): 1.02
- relative viability (NCI-H1651; first compound 0.005 µM): 0.918
- relative viability (NCI-H1651; first compound 0.01581 µM): 0.916
- relative viability (NCI-H1651; first compound 0.05 µM): 0.423
- relative viability (NCI-H1651; first compound 0.1581 µM): 0.943
- relative viability (NCI-H1651; first compound 0.5 µM): 0.957
- relative viability (Calu-6; first compound 0.005 µM): 0.999
- relative viability (Calu-6; first compound 0.01581 µM): 1.16
- relative viability (Calu-6; first compound 0.05 µM): 1.13
- relative viability (Calu-6; first compound 0.1581 µM): 0.972
- relative viability (Calu-6; first compound 0.5 µM): 0.877

SMILES: C=C1C(=O)O[C@@H](CCCCCCCC)[C@@H]1C(=O)O [C-75] + CC(C)C[C@H](NC(=O)[C@H](Cc1ccccc1)NC(=O)c1cnccn1)B(O)O [Bortezomib] (partner 0.002 µM)
- relative viability (IA-LM; first compound 0.08 µM): 0.79
- relative viability (IA-LM; first compound 0.253 µM): 0.61
- relative viability (IA-LM; first compound 0.8 µM): 0.728
- relative viability (IA-LM; first compound 2.53 µM): 0.736
- relative viability (IA-LM; first compound 8 µM): 0.428
- relative viability (EBC-1; first compound 0.08 µM): 0.57
- relative viability (EBC-1; first compound 0.253 µM): 0.512
- relative viability (EBC-1; first compound 0.8 µM): 0.498
- relative viability (EBC-1; first compound 2.53 µM): 0.505
- relative viability (EBC-1; first compound 8 µM): 0.221
- relative viability (NCI-H1703; first compound 0.08 µM): 0.506
- relative viability (NCI-H1703; first compound 0.253 µM): 0.435
- relative viability (NCI-H1703; first compound 0.8 µM): 0.31
- relative viability (NCI-H1703; first compound 2.53 µM): 0.292
- relative viability (NCI-H1703; first compound 8 µM): 0.192
- relative viability (ChaGo-K-1; first compound 0.08 µM): 0.927
- relative viability (ChaGo-K-1; first compound 0.253 µM): 0.944
- relative viability (ChaGo-K-1; first compound 0.8 µM): 0.894
- relative viability (ChaGo-K-1; first compound 2.53 µM): 0.872
- relative viability (ChaGo-K-1; first compound 8 µM): 0.96
- relative viability (NCI-H1299; first compound 0.08 µM): 1.07
- relative viability (NCI-H1299; first compound 0.253 µM): 0.932
- relative viability (NCI-H1299; first compound 0.8 µM): 1.01
- relative viability (NCI-H1299; first compound 2.53 µM): 1.02
- relative viability (NCI-H1299; first compound 8 µM): 1.07
- relative viability (NCI-H1651; first compound 0.08 µM): 0.92
- relative viability (NCI-H1651; first compound 0.253 µM): 0.894
- relative viability (NCI-H1651; first compound 0.8 µM): 0.875
- relative viability (NCI-H1651; first compound 2.53 µM): 0.843
- relative viability (NCI-H1651; first compound 8 µM): 0.886
- relative viability (Calu-6; first compound 0.08 µM): 1.01
- relative viability (Calu-6; first compound 0.253 µM): 1.16
- relative viability (Calu-6; first compound 0.8 µM): 1.02
- relative viability (Calu-6; first compound 2.53 µM): 0.92
- relative viability (Calu-6; first compound 8 µM): 0.855
